[PNA-N] = peptide nucleic acid monomer (N: the base)

Series [1] can be described thus: Zeta potential and hydrodynamic diameter of formulated NPs by dynamic light scattering. In kind it is physicochemical. As to conditions: NPs containing PNA/donor DNA, PBS buffer, n = 3; for Z Av Diameter: dynamic light scattering. As to the method: Blank NPs containing no PNA and a mismatch donor DNA as a control were prepared as a control. The mismatched donor DNA was purposely added into blank NPs because addition of donor DNA helps to produce a similar surface charge on the control NPs as on the test NPs encapsulated with PNA/donor DNA combinations. […] All NP in the diameters were in the range of 200-350 nm, as measured by dynamic light scattering (Table 1), consistent with previous measurements (McNeer, et al., Nat Commun 6, 6952 (2015), Fields, et al., Adv Healthc Mater 4, 361-366 (2015), Fields, et al., J Control Release 164, 41-48 (2012)). PNA/DNA-loaded NPs were cationic (Fields, et al., Adv Healthc Mater 4, 361-366 (2015), Fields, et al., J Control Release 164, 41-48 (2012)) for PBAE/PLGA/MPG NPs (Table 1).

Series [2] has as its system CFTR function in the nasal epithelium. Kind of series: Nasal potential difference (NPD) in CF mice after intranasal NPs. In kind it is in vivo, mouse. As to conditions: F508del CF mice, intranasal PBAE/PLGA/MPG NPs with PNA/donor DNA. As to the method:
FIG. 4 is a dot plot showing functional correction of CFTR with modified NPs in vivo. Mice were treated by intranasal administration with NPs. Nasal potential difference measurements were evaluated before and after NP treatments. The response to a 0Cl+amiloride+forksolin perfusate after NP treatment was compared to the response prior to treatment. Pre- and post-treatment changes in NPD were compared using paired t tests for each mouse. Each mouse is represented with an individual data point; in addition, the mean is shown with a horizontal line, surround by error bars showing the standard error of the mean. In the last panel, nasal potential difference changes in wild type mice are shown for comparison. […]
To determine if gamma tcPNAs were more efficient editing agents than classic PNA in vivo, CF mice were treated intranasally with PBAE/PLGA/MPG NPs containing mCF-PNA/DNA or γmCF-PNA-h/DNA on days 1, 3, 6, and 9. Subsequently, CF mice were assessed for CFTR function in the nasal epithelium by measuring the nasal potential difference (NPD), a non-invasive assay used to detect cAMP-stimulated chloride transport in vivo. […] NPD is assessed in all mice prior to treatment with NPs and reassessed after treatment such that alterations in this measure can be used as a surrogate of restored CFTR function.

For series [3] the following is noted: mouse, in vivo. As to the method:
To collect the lungs for histopathology, a midline incision from sternum to diaphragm was performed and, to remove blood from the pulmonary circulation, PBS+heparin was perfused via the right ventricle using a 20 g needle. Lungs were inflated with 0.5% low melt agarose at constant pressure, then removed from the chest and placed in fixative. Paraffin embedded tissues were stained with hemotoxylin and eosin stain for imaging.
To investigate whether NPs could effectively deliver the gene editing reagents to the lung TAMRA-conjugated mouse specific PNA (γmCF PNA-h) and mouse donor DNA into PBAE/PLGA/MPG NPs were formulated. After intranasal administration of γmCF PNA-h/DNA NPs into CF mice, the lungs were harvested and PNA uptake was assessed by fluorescence microscopy.

In the case of “H-KKK-JTTTTJJJ-OOO-CCCTTTTCAAGGTGAGTAG-KKK-NH2 [mCF PNA] (NTTTTNNNCCCTTTTCAAGGTGAGTAG; listed as DNA, chemistry not fully specified)”, in series [1], the “Zeta Potential” value was 46.17 mV and the “Z Av Diameter” value is 317.8 nm. Besides, the “treated mice showing response to cyclic AMP stimulation (cyclic AMP activated Cl− conductance) in NPD” value in series [2] was found to be 50%.
“H-KKK-JTTTTJJJ-OOO-CCCTTTTCAAGGTGAGTAG-KKK-NH2 [γmCF PNA-h] (NTTTTNNNCCCTTTTCAAGGTGAGTAG; all [PNA-N], the base at N not given here; lysine tripeptides at both ends, OOO linker, some gamma-modified PNA monomers, further chemistry not fully specified) [tail clamp PNA targeting mouse CFTR gene with MPγ monomers in Hoogsteen domain]”: in series [1], the “Zeta Potential” value was determined as 36.17 mV and the “Z Av Diameter” value was found to be 349.1 nm. In series [2], the “treated mice showing response to cyclic AMP stimulation (cyclic AMP activated Cl− conductance) in NPD” value is 79%. In addition, in series [3], the “histology of nasal epithelia / respiratory tract” value is recorded as “No significant differences in the histology of the nasal epithelia”.

(Values after US20220243211A1, “PEPTIDE NUCLEIC ACID COMPOSITIONS WITH MODIFIED HOOGSTEEN BINDING SEGMENTS AND METHODS OF USE THEREOF” (Yale University, priority 2019, published 2022).)
